Results taken from patent US11365193B2, “Oxadiazole compound and fungicide for agricultural and horticultural use” (Nippon Soda Co., Ltd., priority 2017, dated 2022).

Test system: wheat red rust pathogen (Puccinia recondita)
Assay: Test Example 1: wheat red rust disease control test (100 ppm)
Format: in vivo
Conditions: 100 ppm by mass sprayed on wheat young seedlings (Norin 61), inoculated after air-drying; blotch area ratio 12 days after inoculation
Experimental: 5 parts by, mass of an oxadiazole compound, 93.5 parts by mass of dimethylformamide, and 1.5 parts by mass of polyoxyethylene alkyl aryl ether were mixed and dissolved to obtain an emulsion (I) containing 5% by mass of the active ingradient.
The control value was calculated by the following formula. Control value (%)=100-{blotch area ratio in treated area/blotch area ratio in untreated area}×100
Water was added to the emulsion (I) such that the concentration of the oxadiazole compound became 100 ppm by mass, and then the oxadiazole compound was dissolved to obtain a pharmaceutical solution. Then, the pharmaceutical solution was sprayed on wheat young seedings (variety “Norin 61” at the first to second leaf stage) grown in nursery pots. After air-drying, the wheat young seedings sprayed with the pharmaceutical solution were inoculated with summer spores of wheat red rust pathogen (Puccinia recondita) by spraying the summer spores (in treated area).
As a control, wheat young seedings that were not sprayed with the pharmaceutical solution were inoculated in the same manner as mentioned above (in untreated area).
The wheat young seedings were placed under humid conditions at 20° C. for 1 day. […] After 12 days passed from inoculation, leaves of the wheat seedings were visually observed to measure the blotch area ratio, and the control value was calculated.

Row | SMILES | Control value
1 | C[S+]([O-])CCOc1cc(=O)n(Cc2ccc(-c3noc(C(F)(F)F)n3)cc2)cn1 (centres unmarked) [Compound 2-75] | 2-75%

Test system: not given
Assay: not given
Conditions: not given

Row | SMILES | melting point [°C]
2 | CCON=C1CCN(C(=O)Cc2ccc(-c3noc(C(F)(F)F)n3)cc2)CC1S(C)(=O)=O (centres unmarked) [Compound 34] | 128 to 130
3 | COCCON=C1CN(C(=O)Cc2ccc(-c3noc(C(F)(F)F)n3)cc2)C1 [Compound 19] | 114 to 116
4 | CCON=C1CCN(C(=O)Cc2ccc(-c3noc(C(F)(F)F)n3)cc2)CC1 [Compound 6] | 86 to 88
5 | CON=C1CCN(C(=O)Cc2ccc(-c3noc(C(F)(F)F)n3)cc2)CC1SC (centres unmarked) [Compound 33] | 120 to 121
6 | CSCCON=C1CCN(C(=O)Cc2ccc(-c3noc(C(F)(F)F)n3)cc2)CC1 [Compound 27] | 68 to 69
7 | CCSCON=C1CN(C(=O)Cc2ccc(-c3noc(C(F)(F)F)n3)cc2)C1 [Compound 12] | 73 to 75
8 | CCON=C1CCN(C(=O)Cc2ccc(-c3noc(C(F)(F)F)n3)cc2)CC1SC (centres unmarked) [Compound 32] | 80 to 82
9 | COCCON=CCOc1cc(=O)n(Cc2ccc(-c3noc(C(F)(F)F)n3)cc2)cn1 [Compound 1-41] | 94 to 96
10 | CON=C1CCN(C(=O)Cc2ccc(-c3noc(C(F)(F)F)n3)cc2)CC1 [Compound 8] | 73 to 76
11 | CCCON=C1CN(C(=O)C(SCC)c2ccc(-c3noc(C(F)(F)F)n3)cc2)C1 (centres unmarked) [Compound 45] | 83 to 85
12 | CCON=C1CN(C(=O)C(=O)c2ccc(-c3noc(C(F)(F)F)n3)cc2)C1 [Compound 30] | 139 to 141
13 | N#CCON=C1CN(C(=O)Cc2ccc(-c3noc(C(F)(F)F)n3)cc2)C1 [Compound 21] | 125 to 126
14 | O=c1cc(OCC=NOC2CCCCO2)ncn1Cc1ccc(-c2noc(C(F)(F)F)n2)cc1 (centres unmarked) [Compound 1-42] | 103 to 106
15 | O=C(Cc1ccc(-c2noc(C(F)(F)F)n2)cc1)N1CC(=NOCC(F)(F)F)C1 [Compound 9] | 126 to 129
16 | O=C(Cc1ccc(-c2noc(C(F)(F)F)n2)cc1)N1CC(=NOC2CCCCO2)C1 (centres unmarked) [Compound 16] | 82 to 83
17 | CCON=C1CN(C(=O)C(=NOC)c2ccc(-c3noc(C(F)(F)F)n3)cc2)C1 [Compound 31] | 147 to 149
18 | N#CCON=C1CCN(C(=O)Cc2ccc(-c3noc(C(F)(F)F)n3)cc2)CC1 [Compound 20] | 126 to 128
19 | CCON=C1CCN(C(=O)Cc2cccc(-c3noc(C(F)(F)F)n3)c2)CC1 [Compound 11] | 83 to 86
20 | O=C(Cc1ccc(-c2noc(C(F)(F)F)n2)cc1)N1CCC(=NO)CC1 [Compound 25] | 191 to 192
21 | CON=C1CN(C(=O)c2ccc(-c3noc(C(F)(F)F)n3)cc2)C1 [Compound 2] | 162 to 165
22 | CON=C1CN(C(=O)Cc2ccc(-c3noc(C(F)(F)F)n3)cc2)C1 [Compound 7] | 172 to 176
23 | O=C(Cc1ccc(-c2noc(C(F)(F)F)n2)cc1)N1CCC(=NOC2CCCCO2)CC1 (centres unmarked) [Compound 15] | 104 to 106
24 | O=C(Cc1ccc(-c2noc(C(F)(F)F)n2)cc1)N1CCC(=NOCC(F)(F)F)CC1 [Compound 10] | 84 to 86
25 | CCON=C1CN(C(=O)Cc2ccc(-c3noc(C(F)(F)F)n3)cc2)C1 [Compound 5] | 130 to 134
26 | CCON=C1CN(C(=O)C(SC)c2ccc(-c3noc(C(F)(F)F)n3)cc2)C1 (centres unmarked) [Compound 44] | 108 to 110
27 | O=C(Cc1ccc(-c2noc(C(F)(F)F)n2)cc1)N1CC(=NOCC(F)F)C1 [Compound 41] | 140 to 141
28 | CC(C)ON=C1CCN(C(=O)Cc2ccc(-c3noc(C(F)(F)F)n3)cc2)CC1 [Compound 22] | 96 to 100
29 | N#CCCON=C1CCN(C(=O)Cc2ccc(-c3noc(C(F)(F)F)n3)cc2)CC1 [Compound 26] | 71 to 72

Now from value to compound:

Row | melting point [°C] | SMILES
30 | 122 to 125 | O=C(Cn1ncccc1=O)c1ccc(-c2noc(C(F)(F)F)n2)cc1 [Compound 1-15]
31 | 143 to 148 | CON=CCOc1cc(=O)n(Cc2ccc(-c3noc(C(F)(F)F)n3)cc2)cn1 [Compound 1-38]
32 | 97 to 100 | O=c1cccnn1-c1ccc(-c2noc(C(F)(F)F)n2)cc1 [Compound 1-5]
33 | 157 to 160 | O=c1c2c(ncn1Cc1ccc(-c3noc(C(F)(F)F)n3)cc1)CCCC2 [Compound 1-26]
34 | 78 to 80 | O=c1cc(OCC=NOCc2ccccc2)ncn1Cc1ccc(-c2noc(C(F)(F)F)n2)cc1 [Compound 1-44]
35 | 165 to 168 | O=c1cc2ccccc2cn1Cc1ccc(-c2noc(C(F)(F)F)n2)cc1 [Compound 1-6]
36 | 87 to 89 | O=c1c2c(cnn1Cc1ccc(-c3noc(C(F)(F)F)n3)cc1)OCCC2 [Compound 1-32]
37 | 111 to 115 | O=c1cc(OCC=NOCC(F)F)ncn1Cc1ccc(-c2noc(C(F)(F)F)n2)cc1 [Compound 1-45]
38 | 151 to 154 | Cc1ccn(-c2ccc(-c3noc(C(F)(F)F)n3)cc2)c(=O)c1 [Compound 1-8]
39 | 74 to 80 | O=c1cccnn1CCc1ccc(-c2noc(C(F)(F)F)n2)cc1 [Compound 1-33]
40 | 186 to 188 | CS(=O)(=O)c1cnn(-c2ccc(-c3noc(C(F)(F)F)n3)cc2)c(=O)c1 [Compound 1-18]
41 | 141 to 144 | O=c1c2ccccc2cnn1-c1ccc(-c2noc(C(F)(F)F)n2)cc1 [Compound 1-10]
42 | 225 to 228 | Cn1ncc2c(=O)n(Cc3ccc(-c4noc(C(F)(F)F)n4)cc3)cnc21 [Compound 1-24]
43 | 233 to 235 | O=c1c2ccccc2ncn1-c1ccc(-c2noc(C(F)(F)F)n2)cc1 [Compound 1-4]
44 | 94 to 97 | O=c1cc2c(nn1Cc1ccc(-c3noc(C(F)(F)F)n3)cc1)CCC2 [Compound 1-31]
45 | 139 to 142 | CCON=CCOc1cc(=O)n(Cc2ccc(-c3noc(C(F)(F)F)n3)cc2)cn1 [Compound 1-40]
46 | 78 to 83 | Cc1ccc(=O)n(-c2ccc(-c3noc(C(F)(F)F)n3)cc2)n1 [Compound 1-9]
47 | 163 to 166 | Cc1nn(C)c2nc(C)n(Cc3ccc(-c4noc(C(F)(F)F)n4)cc3)c(=O)c12 [Compound 1-30]

Row | melting point [°C] | SMILES
48 | 139 to 140 | O=C(Cc1ccc(-c2noc(C(F)(F)F)n2)cc1)N1CC(=NOCc2ccccc2)C1 [Compound 17]
49 | 145 to 147 | C[S+]([O-])c1cnn(-c2ccc(-c3noc(C(F)(F)F)n3)cc2)c(=O)c1 (centres unmarked) [Compound 1-17]
50 | 165 to 168 | O=c1c2c(ncn1Cc1ccc(-c3noc(C(F)(F)F)n3)cc1)CCC2 [Compound 1-25]
51 | 235 to 237 | O=c1cc(N2CCOCC2)ncn1Cc1ccc(-c2noc(C(F)(F)F)n2)cc1 [Compound 1-52]
52 | 192 to 195 | Cl.O=c1c2c(ncn1Cc1ccc(-c3noc(C(F)(F)F)n3)cc1)CNCC2 [Compound 1-47]
53 | 82 to 98 | O=C(C(=NOCC(F)(F)F)c1ccc(-c2noc(C(F)(F)F)n2)cc1)n1ncccc1=O [Compound 1-29]
54 | 119 to 121 | O=c1cccnn1CC(O)c1ccc(-c2noc(C(F)(F)F)n2)cc1 (centres unmarked) [Compound 1-36]
55 | 132 to 135 | Cc1nc2c(c(=O)n1Cc1ccc(-c3noc(C(F)(F)F)n3)cc1)CCCC2 [Compound 1-34]
56 | 105 to 107 | O=c1cccnn1CC1(c2ccc(-c3noc(C(F)(F)F)n3)cc2)OCCO1 [Compound 1-14]
57 | 187 to 190 | Cc1nn(C)c2cnn(Cc3ccc(-c4noc(C(F)(F)F)n4)cc3)c(=O)c12 [Compound 1-22]
58 | 131 to 133 | N#CCON=CCOc1cc(=O)n(Cc2ccc(-c3noc(C(F)(F)F)n3)cc2)cn1 [Compound 1-46]
59 | 118 to 120 | Cc1nc2c(cnn2C)c(=O)n1Cc1ccc(-c2noc(C(F)(F)F)n2)cc1 [Compound 1-23]
60 | 130 to 133 | O=c1ccccn1-c1ccc(-c2noc(C(F)(F)F)n2)cc1 [Compound 1-2]
61 | 151 to 153 | CSc1cnn(-c2ccc(-c3noc(C(F)(F)F)n3)cc2)c(=O)c1 [Compound 1-16]
62 | 178 to 180 | O=c1c2ccccc2ncn1Cc1ccc(-c2noc(C(F)(F)F)n2)cc1 [Compound 1-3]
63 | 158 to 160 | Cc1noc2cnn(Cc3ccc(-c4noc(C(F)(F)F)n4)cc3)c(=O)c12 [Compound 1-21]
64 | 133 to 136 | O=c1c2ccccc2cnn1Cc1ccc(-c2noc(C(F)(F)F)n2)cc1 [Compound 1-11]
65 | 201 to 203 | CON=CCOc1ncn(Cc2ccc(-c3noc(C(F)(F)F)n3)cc2)c(=O)c1Cl [Compound 1-37]
